Measured values as given in US20230277553A1, “THERAPEUTIC COMPOSITION OF CURE-PRO COMPOUNDS FOR TARGETED DEGRADATION OF BET DOMAIN PROTEINS, AND METHODS OF MAKING AND USAGE” (CORNELL UNIVERSITY, priority 2020, published 2023).
“Also recorded” adds a separate entry of the source.

Columns and labels:
[1] = target: T1, BRD4 (Homo sapiens, UniProt O60885); assay: CURE-PRO-mediated BRD4 degradation, Western blot, HeLa cells; format: cell-based; design: endogenous in cells; host or cells: HeLa; details: 24 h, Western blot; for BRD4 degradation, co-treatment with CRBN ligand 8047: 1:1 with 8047, 10 μM each; for BRD4 degradation, co-treatment with CRBN ligand 8066: 1:1 with 8066, 10 μM each (BRD-E10: 10 and 100 μM); for BRD4 degradation, co-treatment with CRBN ligand 8048: 1:1 with 8048, 1-10 μM each; for BRD4 degradation, BRD ligand alone: BRD monomer alone; for BRD4 degradation, co-treatment with CRBN ligand 8046: 1:1 with 8046, 10 μM each
Description: All cell lines were purchased from ATCC or DSMZ and grown at 37° C. with 5% CO2. Human HeLa cells were cultured in complete growth medium (Dulbecco's modified Eagle's medium (DMEM) supplemented with 10% FBS); MCF7 cells were cultured in complete growth medium (Dulbecco's modified Eagle's medium (DMEM) supplemented with 10% FBS and 0.01 mg/ml human recombinant insulin (Sigma Aldrich); Namalwa and MOLM-13 cells were cultured in complete growth medium (RPMI 1640 medium supplemented with 10% FBS); MV-4-11 were cultured in complete growth medium (Iscove's Modified Dulbecco's medium, supplemented with 10% FBS); HCT116 cells were cultured in complete growth medium (McCoy's 5a Medium supplemented with 10% FBS). For cellular degradation of BRD4 studies, cells were seeded in a 12-well plate at 70-80% confluency, allowed to attach overnight, and incubated with the indicated compounds for the indicated time. When indicated, a 15-minute pretreatment with 10 μM pomalidomide, 10 μM VHL298, 10 μM Nutlin3a, 1 μM MG-132 or 1 μM Carfilzomib was performed before the addition of CURE-PROs. For washout studies, after CURE-PRO treatment, media was aspirated and incubated with complete medium for the indicated time before lysis.
Anti-BRD4 (13440, 1:1,000 dilution for Western Blot and 1:25 dilution for ProteinSimple); Anti-BRD2 (5848 1:1,000 dilution for Western Blot and 1:25 dilution for ProteinSimple); β-Actin (3700, 1:2,000 dilution for Western Blot), β-Actin (4970, 1:50 dilution for ProteinSimple) anti-mouse IgG-HRP, and anti-rabbit IgG-HRP antibodies were purchased Cell Signaling Technology. Anti-GAPDH (600-401-A33, 1:100 dilution for ProteinSimple) was purchased from Rockland Immunochemicals, Inc. Anti-BRD3 (sc-81202, 1:200 dilution for Western Blot) was purchased from Santa Cruz Biotechnology.
HeLa, MCF7, or HCT116 cells (2.5-3×10^6) were treated for 24 hours with the indicated compounds solubilized in DMSO. The cells were washed in ice-cold PBS and were then lysed in RIPA lysis buffer (150 mM NaCl, 5 mM EDTA, 1% NP-40, 0.5% sodium deoxycholate, 0.1% SDS, 50 mM Tris, pH 8.0.) with Roche protease inhibitor complete cocktail and phosphatase inhibitors (10 mM sodium fluoride, 10 mM sodium pyrophosphate, 1 mM sodium orthovanadate and 20 mM β-glycerophosphate). The total protein concentrations were determined by Bradford Protein Assay and 10-20 μg of protein was loaded onto 4-15% Tris-Glycine gradient gels (Biorad). After standard gel electrophoresis, the separated proteins were transferred to PVDF membrane by wet transfer. The immunoblots were then blocked for 1 hour in 5% skim milk in TBST or 5% BSA in TBST, according to manufacturer's instructions, before an overnight incubation at 4° C. with indicated antibodies and membranes. Membranes were then incubated with the appropriate horseradish peroxidase-conjugated secondary antibodies (1:5,000 dilution) for 1 h at room temperature and the bands were visualized using the Clarity Max Western ECL Substrate (Biorad) and the ChemiDoc Imaging System (Biorad). Signal was detected with ECL Western Blotting Substrate (Pierce) and X-ray film processed with a Konica SRX-101 X-ray film processor or captured by Bio-Rad's Chemidoc Imaging system.
HeLa cells (2.5×106) were treated for 24 hours with the sample compounds solubilized in DMSO. Compounds were added at 1-10 μM each. Standardized protein samples were electrophoresed and imaged as described in the immunoblotting description above. FIGS. 6-18 depicts the CURE-PRO-mediated BRD4 degradation for BRD monomers (JQ1 derivatives comprising of catechol linkers), and CRBN ligands, 8048 and 8049 (pomalidomide derivatives comprising boronic acid linkers) combined in a 1:1 ratio.
HeLa cells (2.5×106) were treated for 24 hours with the compounds solubilized in DMSO. The compounds were added at 10 μM each. Standardized protein samples were electrophoresed and imaged as described in the immunoblotting section above. […]

[2] = target: T1, BRD4; assay: Summary of BRD4 degradation by CURE-PRO pairs, estimated from Western Blot or WES (Proteinsimple); format: cell-based; design: endogenous in cells; details: for Degradation of BRD4 in combination with CRBN ligand [drawing 371] / Degradation of BRD4 in combination with CRBN ligand [drawing 372] / Degradation of BRD4 in combination with CRBN ligand [drawing 370]: Table 1; for Degradation of BRD4 in combination with CRBN ligand [drawing 371]: second drawing (8047); for Degradation of BRD4 in combination with CRBN ligand [drawing 372]: third drawing (8066); for Degradation of BRD4 in combination with CRBN ligand [drawing 370]: aromatic 1,2-diol- or hindered cis-1,2-diol-containing CRBN ligand, first drawing (8046); for Degradation of BRD4 in combination with CRBN ligand [drawing 407]: Table 4, aryl-boronic acid-containing CRBN ligand, first drawing (by text: 8048); for Degradation of BRD4 in combination with VHL ligand [drawing 397]: Table 3, aromatic 1,2-diol-containing VHL ligand, second drawing (8305)
Excerpt: A black check mark indicates efficacy of 30% to 70% or higher protein degradation.

COc1ccc2c(c1)C(c1ccc(Cl)cc1)=N[C@@H](CC(=O)NCCNC(=O)Cc1ccc(B(O)O)cc1)c1nnc(C)n1-2 [BRD-E27, (4-(2-((2-(2-((4S)-6-(4-chlorophenyl)-8-methoxy-1-methyl-4H-benzo[f][1,2,4]triazolo[4,3-a][1,4]diazepin-4-yl)acetamido)ethyl)amino)-2-oxoethyl)phenyl)boronic acid]
BRD4 degradation, co-treatment with CRBN ligand 8047 [1]: causes degradation of BRD4 | Degradation of BRD4 in combination with CRBN ligand [drawing 371] [2]: ✓ (A black check mark indicates efficacy of 30% to 70% or higher protein degradation)

COc1ccc2c(c1)C(c1ccc(Cl)cc1)=N[C@@H](CC(=O)NCCCCNC(=O)c1ccc(B(O)O)cc1)c1nnc(C)n1-2 [BRD-E5]
BRD4 degradation, co-treatment with CRBN ligand 8047 [1]: causes degradation of BRD4; also recorded: Degradation is noted | BRD4 degradation, co-treatment with CRBN ligand 8066 [1]: causes degradation of BRD4; also recorded: Degradation is noted | Degradation of BRD4 in combination with CRBN ligand [drawing 371] [2]: ✓ (A black check mark indicates efficacy of 30% to 70% or higher protein degradation) | Degradation of BRD4 in combination with CRBN ligand [drawing 372] [2]: ✓ (A black check mark indicates efficacy of 30% to 70% or higher protein degradation)

CCNC(=O)C[C@@H]1N=C(c2ccc(Cl)cc2)c2cc(OCCOCCNC(=O)c3ccc(B(O)O)cc3)ccc2-n2c(C)nnc21 [BRD- E39]
Degradation of BRD4 in combination with CRBN ligand [drawing 370] [2]: ✓ (A black check mark indicates efficacy of 30% to 70% or higher protein degradation)

COc1ccc2c(c1)C(c1ccc(Cl)cc1)=N[C@@H](CC(=O)NCCCCNC(=O)c1cccc(O)c1O)c1nnc(C)n1-2 [BRD-N6]
BRD4 degradation, co-treatment with CRBN ligand 8048 [1]: causes degradation of BRD4; also recorded: Degradation is noted | BRD4 degradation, co-treatment with CRBN ligand 8049 ([1]; 1:1 with 8049, 1-10 μM each): no evidence of BRD4 degradation | BRD4 degradation, BRD ligand alone [1]: no degradation of BRD4 | Degradation of BRD4 in combination with CRBN ligand [drawing 407] [2]: ✓ (A black check mark indicates efficacy of 30% to 70% or higher protein degradation)

COc1ccc2c(c1)C(c1ccc(Cl)cc1)=N[C@@H](CC(=O)NCCCNC(=O)c1cccc(B(O)O)c1)c1nnc(C)n1-2 [BRD-E4]
BRD4 degradation, co-treatment with CRBN ligand 8046 [1]: causes degradation of BRD4; also recorded: Degradation is noted | BRD4 degradation, co-treatment with CRBN ligand 8047 [1]: causes degradation of BRD4; also recorded: Degradation is noted | BRD4 degradation, co-treatment with CRBN ligand 8066 [1]: causes degradation of BRD4; also recorded: Degradation is noted | Degradation of BRD4 in combination with CRBN ligand [drawing 371] [2]: ✓ (A black check mark indicates efficacy of 30% to 70% or higher protein degradation) | Degradation of BRD4 in combination with CRBN ligand [drawing 372] [2]: ✓ (A black check mark indicates efficacy of 30% to 70% or higher protein degradation) | Degradation of BRD4 in combination with CRBN ligand [drawing 370] [2]: ✓ (A black check mark indicates efficacy of 30% to 70% or higher protein degradation)

COc1ccc2c(c1)C(c1ccc(Cl)cc1)=N[C@@H](CC(=O)NCCNC(=O)c1cccc(B(O)O)c1)c1nnc(C)n1-2 [BRD-E2]
Degradation of BRD4 in combination with VHL ligand [drawing 397] [2]: ✓ (A black check mark indicates efficacy of 30% to 70% or higher protein degradation)

CCNC(=O)C[C@@H]1N=C(c2ccc(Cl)cc2)c2cc(OCCOCCOCCNC(=O)c3ccc(O)c(O)c3)ccc2-n2c(C)nnc21 [BRD- N40]
Degradation of BRD4 in combination with aryl-boronic acid-containing VHL ligand ([2]; Table 6, head shows drawings [drawing 429] and [drawing 430]): ✓ (A black check mark indicates efficacy of 30% to 70% or higher protein degradation)

CCNC(=O)C[C@@H]1N=C(c2ccc(Cl)cc2)c2cc(OCCOCCOCCOCCNC(=O)c3ccc(B(O)O)cc3)ccc2-n2c(C)nnc21 [BRD-E43]
BRD4 degradation, co-treatment with CRBN ligand 8046 [1]: but not 8046 | BRD4 degradation, co-treatment with CRBN ligand 8047 [1]: causes degradation of BRD4 | BRD4 degradation, co-treatment with CRBN ligand 8066 [1]: causes degradation of BRD4; also recorded: Degradation is noted | Degradation of BRD4 in combination with CRBN ligand [drawing 371] [2]: ✓ (A black check mark indicates efficacy of 30% to 70% or higher protein degradation) | Degradation of BRD4 in combination with CRBN ligand [drawing 372] [2]: ✓ (A black check mark indicates efficacy of 30% to 70% or higher protein degradation)

COc1ccc2c(c1)C(c1ccc(Cl)cc1)=N[C@@H](CC(=O)NCCNC(=O)Cc1ccc(O)c(O)c1)c1nnc(C)n1-2 [BRD-N30]
BRD4 degradation, co-treatment with CRBN ligand 8048 [1]: causes degradation of BRD4 | BRD4 degradation, BRD ligand alone [1]: no degradation of BRD4 | Degradation of BRD4 in combination with CRBN ligand [drawing 407] [2]: ✓ (A black check mark indicates efficacy of 30% to 70% or higher protein degradation)

CCNC(=O)C[C@@H]1N=C(c2ccc(Cl)cc2)c2cc(OCCOCCNC(=O)c3ccc(O)c(O)c3)ccc2-n2c(C)nnc21 [BRD-N38, N-(2-(2-(((4S)-6-(4-chlorophenyl)-4-(2-(ethylamino)-2-oxoethyl)-1-methyl-4H-benzo[f][1,2,4]triazolo[4,3-a][1,4]diazepin-8-yl)oxy)ethoxy)ethyl)-3,4-dihydroxybenzamide]
BRD4 degradation, co-treatment with CRBN ligand 8048 [1]: causes degradation of BRD4 | BRD4 degradation, BRD ligand alone [1]: no degradation of BRD4 | Degradation of BRD4 in combination with CRBN ligand [drawing 407] [2]: ✓ (A black check mark indicates efficacy of 30% to 70% or higher protein degradation)

COc1ccc2c(c1)C(c1ccc(Cl)cc1)=N[C@@H](CC(=O)NCc1ccc(B(O)O)cc1)c1nnc(C)n1-2 [BRD-E09, (4-((2-((4S)-6-(4-chlorophenyl)-8-methoxy-1-methyl-4H-benzo[f][1,2,4]triazolo[4,3-a][1,4]diazepin-4-yl)acetamido)methyl)phenyl)boronic acid]
Degradation of BRD4 in combination with VHL ligand [drawing 397] [2]: ✓ (A black check mark indicates efficacy of 30% to 70% or higher protein degradation)

CCNC(=O)C[C@@H]1N=C(c2ccc(SCc3ccc(B(O)O)cc3)cc2)c2cc(OC)ccc2-n2c(C)nnc21 [BRD-E54]
Degradation of BRD4 in combination with VHL ligand [drawing 397] [2]: ✓ (A black check mark indicates efficacy of 30% to 70% or higher protein degradation)

COc1ccc2c(c1)C(c1ccc(Cl)cc1)=N[C@@H](CC(=O)NCCCCCNC(=O)c1ccc(B(O)O)cc1)c1nnc(C)n1-2 [BRD- E07]
Degradation of BRD4 in combination with CRBN ligand [drawing 372] [2]: ✓ (A black check mark indicates efficacy of 30% to 70% or higher protein degradation)

COc1ccc2c(c1)C(c1ccc(Cl)cc1)=N[C@@H](CC(=O)Nc1ccc(O)c(O)c1)c1nnc(C)n1-2 [BRD-N68]
Degradation of BRD4 in combination with CRBN ligand [drawing 407] [2]: ✓ (A black check mark indicates efficacy of 30% to 70% or higher protein degradation)

COc1ccc2c(c1)C(c1ccc(Cl)cc1)=N[C@@H](CC(=O)NCCNC(=O)Cc1cccc(B(O)O)c1)c1nnc(C)n1-2 [BRD- E38]
Degradation of BRD4 in combination with CRBN ligand [drawing 371] [2]: ✓ (A black check mark indicates efficacy of 30% to 70% or higher protein degradation)
